# Assay results from the supplement of paper PMC10307832.
# How the values were obtained:
# Test in all cases: relative viability (nuclei count vs DMSO), 5 days (fraction); higher = more cells survive
# Ibrutinib + Pemetrexed = compound: C=CC(=O)N1CCC[C@@H](n2nc(-c3ccc(Oc4ccccc4)cc3)c3c(N)ncnc32)C1 [Ibrutinib] + Nc1nc2[nH]cc(CCc3ccc(C(=O)N[C@@H](CCC(=O)O)C(=O)O)cc3)c2c(=O)[nH]1 [Pemetrexed] (partner 0.2 µM)
# Method in brief: (§1)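 Lung cancer cell lines in 1536-well plates got either a single drug or a fixed anchor-drug dose together with five library-drug doses (not always all listed) in √10 steps, by pin tool, on the day after seeding. Nuclei were counted after 5 days, and relative viability is the treated-to-vehicle ratio of nuclei counts. Values are medians of duplicate plates.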
# PAC-1 + Decitabine = compound: C=CCc1cccc(/C=N/NC(=O)CN2CCN(Cc3ccccc3)CC2)c1O [PAC-1] + Nc1ncn([C@H]2C[C@H](O)[C@@H](CO)O2)c(=O)n1 [Decitabine] (partner 2 µM)
# Method in brief: as §1
# PAC-1 + AZD7762 = compound: C=CCc1cccc(/C=N/NC(=O)CN2CCN(Cc3ccccc3)CC2)c1O [PAC-1] + NC(=O)Nc1cc(-c2cccc(F)c2)sc1C(=O)N[C@H]1CCCNC1 [AZD7762] (partner 0.2 µM)
# Method in brief: as §1
# PAC-1 + Alpelisib = compound: C=CCc1cccc(/C=N/NC(=O)CN2CCN(Cc3ccccc3)CC2)c1O [PAC-1] + Cc1nc(NC(=O)N2CCC[C@H]2C(N)=O)sc1-c1ccnc(C(C)(C)C(F)(F)F)c1 [Alpelisib] (partner 2 µM)
# Method in brief: as §1
Cell Line,relative viability (Ibrutinib + Pemetrexed; first compound 0.005 µM),relative viability (Ibrutinib + Pemetrexed; first compound 0.01581 µM),relative viability (Ibrutinib + Pemetrexed; first compound 0.05 µM),relative viability (Ibrutinib + Pemetrexed; first compound 0.1581 µM),relative viability (Ibrutinib + Pemetrexed; first compound 0.5 µM),relative viability (PAC-1 + Decitabine; first compound 0.02 µM),relative viability (PAC-1 + Decitabine; first compound 0.06325 µM),relative viability (PAC-1 + Decitabine; first compound 0.2 µM),relative viability (PAC-1 + Decitabine; first compound 2 µM),relative viability (PAC-1 + AZD7762; first compound 0.02 µM),relative viability (PAC-1 + AZD7762; first compound 0.06325 µM),relative viability (PAC-1 + AZD7762; first compound 0.2 µM),relative viability (PAC-1 + AZD7762; first compound 2 µM),relative viability (PAC-1 + Alpelisib; first compound 0.02 µM),relative viability (PAC-1 + Alpelisib; first compound 0.06325 µM),relative viability (PAC-1 + Alpelisib; first compound 0.2 µM),relative viability (PAC-1 + Alpelisib; first compound 2 µM)
201T,0.296,0.301,0.363,0.363,0.507,0.854,0.85,0.836,0.861,0.625,0.59,0.571,0.567,0.935,1,1.03,1.01
A549,–,–,–,–,–,0.342,0.267,0.138,0.253,–,–,–,–,0.718,0.727,0.694,0.707
A-427,0.986,0.995,0.961,–,1.02,0.602,0.56,0.532,0.542,0.774,0.734,0.713,0.702,1.17,1.08,1.05,1.05
ABC-1,–,–,–,–,–,0.809,1.06,1.05,1.16,0.952,0.871,0.628,0.975,1.11,1.06,1.1,1.28
BEN,0.489,0.757,0.637,0.469,0.785,0.644,0.72,0.613,0.642,0.712,0.626,0.618,0.828,1.04,1.1,1.09,0.965
CAL-12T,1.26,1.19,1.12,1.26,1.27,–,–,–,–,0.579,0.621,0.626,0.6,1.13,1.18,1.16,1.37
COR-L23,0.211,0.179,0.204,0.198,0.235,0.487,0.428,–,0.418,–,–,–,–,0.715,0.812,0.693,0.816
COR-L 105,0.778,1.16,0.855,1.06,0.692,0.63,0.71,0.707,0.696,–,–,–,–,0.736,1.22,1.04,1.24
Calu-6,–,–,–,–,–,–,–,–,–,–,–,–,–,0.929,1.03,0.931,1.13
ChaGo-K-1,0.254,0.263,0.264,0.261,0.271,0.522,0.506,0.458,0.54,0.858,0.907,0.861,0.9,–,–,–,–
EBC-1,–,–,–,–,–,–,–,–,–,–,–,–,–,0.769,0.808,0.736,0.809
EKVX,0.33,0.419,0.359,0.336,0.222,0.216,0.315,0.378,0.319,0.638,0.75,0.664,0.62,0.788,0.956,0.801,0.899
EMC-BAC-2,0.527,0.449,0.541,–,0.714,0.924,0.989,0.895,1.01,1.13,1.24,1.19,1.15,0.72,0.801,0.737,0.67
